Assays:
physchem = type: physicochemical; details: identical conditions (deionized water, room temperature, 24 hours); read-out: equilibrium solubility of diclofenac sodium in the absence of beta cyclodextrin
Description: The vial is sealed and placed in a laboratory shaker. The mixture is allowed to shake for 5 minutes and then equilibrated for 24 hours. The supernatant is filtered through a 0,22 micron filter and analyzed for diclofenac concentration by HPLC.

[1] = phase solubility analysis; cited from earlier work

solubility thermodynamic at 24 h (physchem) | SMILES | effect of beta-cyclodextrin and hydroxyalkyl ether derivatives on aqueous solubility of diclofenac [1]
5000 µg/mL | O=C(O)Cc1ccccc1Nc1c(Cl)cccc1Cl [diclofenac sodium] | –
– | O=C(O)Cc1ccccc1Nc1c(Cl)cccc1Cl [diclofenac, 2-[(2,6-dichlorophenyl)amino]benzeneacetic acid] | increase the aqueous solubility

Reference: patent US5674854A, “Inclusion complex of beta-cyclodextrin and diclofenac, its preparation and use” (Farmarc Nederland BV, priority 1993, dated 1997)
